Structures can show the parent of a compound that is named as a salt. Where two headings read alike, the source gives them in different places.
Columns and labels:
[1] = target: T1, beta-amyloid 42 (Aβ42) (Homo sapiens, UniProt P05067); experiment: Inhibitory effect on the formation of beta-amyloid fibrils in vitro (ThT fluorescence assay); type: biochemical; details: for inhibition at 10 µM: 10 μM compound, 25 μM Aβ42, ThT fluorescence
T1 construct: Beta-amyloid 42 (Aβ42) was dissolved in dimethylsulfoxide (DMSO) to form a 250 mM Aβ42 stock solution
Procedure: Beta-amyloid 42 (Aβ42) was dissolved in dimethylsulfoxide (DMSO) to form a […] Aβ42 stock solution. In addition, ThT (thioflavin T) was dissolved in distilled water to obtain a concentration of 1 mM and subsequently diluted with 50 mM glycin buffer (pH 8.5) to yield a 5 μM ThT stock solution. 45 μL of PBS (phosphate buffer saline, pH 7.4) was added to each of a 96-well fluorescence microplate (white, F-bottom). 5 μL of the 250 μM Aβ42 stock solution was added to each well. The final concentration of each compound obtained in Examples was in a range of 10 to 0.001 μM by adding 2 μL of a solution, which was prepared by dissolving the subject compounds obtained in Examples in DMSO, to each well. At this time, the final concentration of Aβ42 in each well was 25 μM. The plate was then incubated for 1 hr at room temperature, and 150 μL of the 5 μM ThT stock solution was added to each well.
The fluorescence intensity of each well was determined with the multi-label fluorescence counter (LS-55 Luminescence spectrometer: Perkin Elmer) at an excitation wavelength of 450 nm (excitation slit width: 10 nm) and an emission wavelength of 482 nm (emission slit width: 10 nm), while adjusting counting time to 1 second. The control group was prepared by adding PBS solution, Aβ42 and DMSO, without adding the inventive compound prepared above. A percent inhibition on the formation of beta-amyloid fibrils was calculated in accordance with the following equation, and IC50 was calculated by using GraphPad Prism version 4.03 Program.
% Inhibition=[1−(C−D)/(A−B)]×100
A (control group)=fluorescence intensity in a group treated with PBS solution, Aβ42 and DMSO
B (blank)=fluorescence intensity in a group treated with PBS solution and DMSO
C (experimental group)=fluorescence intensity in a group treated with PBS solution, Aβ42, the inventive compound and DMSO
D (compensation value to the experimental group) =fluorescence intensity in a group treated with PBS solution, the inventive compound and DMSO

[2] = target: hERG potassium ion channel (Homo sapiens, UniProt Q12809); experiment: Inhibitory effect of hERG potassium ion channel (whole-cell patch clamp, HEK-hERG cell line); type: cell-based
Procedure: A HEK-hERG cell line (IonGate Biosciences, Frankfrut, Germany) which stably expresses hERG was cultured in a DMEM (Dulbecco's modified Eagle's Medium, Sigma Co., St. Louis, Mo., USA) supplemented with 10% fetal bovine serum (FBS, Cambrex, Walkesville, Md., USA) and 0.5 mg/mL zeocin (Invitrogen, Carlsbad, Calif., USA). The cell line was subcultured for 5 days after culture when 80% confluency was reached.
A solution within an electrode used to measure the potassium ion current is composed of 115 mM K-aspartate, 20 mM KCl, 10 mM EGTA, 10 mM HEPES, 2.5 mM tris-phosphocreatine, 0.1 mM Na2GTP and 5 mM MgCl2 (pH 7.2, 290 mOsm/Kg H2O). A solution for an extracellular perfusate is composed of 135 mM NaCl, 5 mM KCl, 1 mM MgCl2, 2 mM CaCl2, 10 mM glucose and 10 mM HEPES (pH 7.2, 300 mOsm/Kg H2O). […]
Potassium ion current was measured by using EPC10 (Instrutech Co., NY, USA) patch clamp amplifier in accordance with the conventional whole-cell patch clamp method. […] The membrane capacitance and series resistance of cell membrane were calibrated by 80% or more and potassium ion current was measured at a sampling rate of 2 kHz and a low-pass filter of 2 kHz (−3 dB; 8-pole Bassel filter). […]
The results were analyzed by using Pulse/Pulsefit (v9.0, HEKA Elektronik, Lambrecht, Germany) and Igor macro. […]

[3] = Pharmacokinetics test (blood concentration) in mice and rats; type: in vivo, ICR mice and SD rats
Procedure: (§1) Three 7 week-old ICR mice (weight: approximately 30 g) and three 8 week-old SD rats (weight: approximately 250 g) were used per test group. A solution prepared by dissolving a hydrochloride salt of the compound of Example 3 in excipient (DMSO/Tween 20/saline: 0.1/0.6/2.3, v/v/v) or distilled water was administered to each experimental animal. The test compound was intravenously administered in an amount of 5 mL per kg of body weight through the fine vein or orally administered in an amount of 10 mL per kg of body weight.
At 0.5, 1, 2, 4, 10, and 24 hrs after the oral administration of the test compounds, the blood was collected from periorbital veins into the tube containing heparin (1000 IU/mL, 3 μL) for the mice, and from jugular veins for rats. The blood samples were centrifuged (12,000 rpm for 2 min, Eppendorf Co.) to obtain plasmas and the obtained plasmas were kept in a freezer until the analysis at −80° C.
(§2) 50 μL of plasma was placed in a 2.0 mL tube with a cap (Eppendorf Co.) and acidified by adding 20 μL of 0.1% formic acid thereto. An internal standard solution and 1 mL of ethyl acetate as an extract solvent were added to the resulting solution. The resulting solution was mixed by using a thermomixer (Eppendorf Co.) for 5 min at 1,400 rpm, and then subjected to centrifugation (Eppendorf Co.). The supernatant was collected and concentrated at 35° C. by using a cyclone. The residue was re-dissolved in 50 μL of mobile phase and 5 μL of the resulting solution was injected into LC/MS and analyzed.
(§3) In Table 3, “iv” refers to intravenous injection; “po” refers to per oral; “AUC plasma” refers to an area under the plasma level-time curve; “Cmax” refers to a maximum plasma concentration; “Tmax” refers to a time to reach Cmax; “BA” refers to bioavailability (%) according to Equation 2 below; “AUC Brain” refers to an area under the brain tissue level-time curve; and “AUCBrain/AUCPlasma” refers to a passage rate of the test compound to the brain.
Bioavailability (%)=[(AUCpo/AUCiv)×(Doseiv/Dosepo)×100]
In the above Equation, AUCpo refers to an area under the blood concentration time curve (AUC) after per oral administration, AUCiv means an AUC after the intravenous injection; Doseiv refers to a dose of the intravenous injection; and Dosepo refers to a dose of the per os.

[4] = Passage test through the blood-brain barrier (brain tissue concentration); type: in vivo, ICR mice and SD rats; details: for Kp: brain, read-out: AUCBrain/AUCPlasma
Procedure: as §1, with “v/v/v)” for “v/v/v) or distilled water”
At 0.5, 1, 2, 4, 10 and 24 hrs after the administration of the test compound, the mice and rats were subjected to insufflations narcosis using isoflorane, followed by cutting the abdomen open. Subsequently, 1 mL of blood was collected from abdominal veins into the tube containing heparin (1000 IU/mL, 3 μL). The obtained blood samples were centrifuged for 2 min at 12,000 rpm to obtain plasma. The obtained plasmas were kept in a freezer at −80° C. until the analysis.
The mice and rats from which the blood samples were obtained were subjected to bloodletting, and then, the brain tissues of the mice and rats was collected. The brain tissue thus obtained was washed with physiological saline 1 or 2 times to remove blood. The weight of the brain tissue was measured after the removal of adipose tissue and peripheral tissue. 4% bovine serum albumin (BSA) solution diluted with 10-fold was added to the brain tissue. The resulting solution was subjected to homogenization using a homogenizer. The diluted homogenate thus obtained was placed in 2 mL tube and was kept in a freezer at −80° C. until the analysis. All of the treatments to the sample were performed in ice.
as §2, with “cap (Eppendorf Co.). An internal” for “cap (Eppendorf Co.) and acidified by adding 20 μL of 0.1% formic acid thereto. An internal”, “by using thermomixer (Eppendorf” for “by using a thermomixer (Eppendorf”, “min at 1400 rpm, and” for “min at 1,400 rpm, and”
as §3

T1 sequence (P05067 672-713 limits assumed): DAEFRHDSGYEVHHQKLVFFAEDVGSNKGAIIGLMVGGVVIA
Sequence of hERG potassium ion channel (Q12809 whole entry): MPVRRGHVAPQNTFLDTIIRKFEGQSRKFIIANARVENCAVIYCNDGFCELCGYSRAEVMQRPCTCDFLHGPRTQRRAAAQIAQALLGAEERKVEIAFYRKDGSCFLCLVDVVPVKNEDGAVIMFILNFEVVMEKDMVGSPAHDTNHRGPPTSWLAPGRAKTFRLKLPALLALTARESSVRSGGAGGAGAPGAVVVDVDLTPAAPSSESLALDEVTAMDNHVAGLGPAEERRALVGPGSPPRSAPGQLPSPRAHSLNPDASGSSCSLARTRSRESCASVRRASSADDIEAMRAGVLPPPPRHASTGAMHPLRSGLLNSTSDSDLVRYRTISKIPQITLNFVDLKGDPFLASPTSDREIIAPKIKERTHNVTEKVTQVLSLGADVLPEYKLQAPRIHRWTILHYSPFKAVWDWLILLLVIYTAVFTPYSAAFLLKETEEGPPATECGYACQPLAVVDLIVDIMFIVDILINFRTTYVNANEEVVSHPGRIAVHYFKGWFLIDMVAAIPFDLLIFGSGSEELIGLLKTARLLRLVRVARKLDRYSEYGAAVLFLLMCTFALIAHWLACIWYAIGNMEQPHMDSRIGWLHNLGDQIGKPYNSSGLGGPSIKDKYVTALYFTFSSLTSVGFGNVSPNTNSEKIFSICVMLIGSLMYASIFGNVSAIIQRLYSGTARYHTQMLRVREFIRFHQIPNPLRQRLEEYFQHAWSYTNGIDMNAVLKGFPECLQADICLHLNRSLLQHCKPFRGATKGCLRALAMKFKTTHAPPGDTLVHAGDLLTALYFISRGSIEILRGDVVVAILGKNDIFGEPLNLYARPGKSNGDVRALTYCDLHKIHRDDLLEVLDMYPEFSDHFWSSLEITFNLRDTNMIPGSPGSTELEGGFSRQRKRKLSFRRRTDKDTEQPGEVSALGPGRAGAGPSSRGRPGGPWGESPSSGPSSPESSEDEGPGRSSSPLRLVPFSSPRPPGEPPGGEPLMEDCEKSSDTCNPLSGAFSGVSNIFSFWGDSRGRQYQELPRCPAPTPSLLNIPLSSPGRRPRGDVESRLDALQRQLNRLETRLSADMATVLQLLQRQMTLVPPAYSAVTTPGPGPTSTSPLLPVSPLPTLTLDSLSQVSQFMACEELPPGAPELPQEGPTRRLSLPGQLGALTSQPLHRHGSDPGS

inhibition at 10 µM [1] [%] | BA ([3]; 10.0 mg/kg po vs 5.0 mg/kg iv) [%] | AUC ([3]; plasma, 5.0 mg/kg, iv, n = 3) [ng·h/mL] | AUC ([3]; plasma, 10.0 mg/kg, po, n = 3) [ng·h/mL] | Cmax ([3]; plasma, 10.0 mg/kg, po, n = 3) [ng/mL] | Tmax ([3]; plasma, 10.0 mg/kg, po, n = 3) [h] | AUC Brain ([4]; 5.0 mg/kg, iv, brain tissue) | AUC Brain ([4]; 10.0 mg/kg, po, brain tissue) | Cmax (brain) ([4]; 10.0 mg/kg, po, brain tissue) | Tmax ([4]; 10.0 mg/kg, po, brain tissue) [h] | Kp ([4]; 5.0 mg/kg, iv) | Kp ([4]; 10.0 mg/kg, po) | Structure (SMILES) | IC50 ([2]; HEK-hERG cells, whole-cell patch clamp, mean ± standard error) [µM] | inhibitory efficacy on hERG potassium ion channel ([2]; result in words) | Aβ42 % inhibition compared with comparative compound curcumin ([1]; 10 μM)
≥ 70 |  |  |  |  |  |  |  |  |  |  |  | CN(C)CCOc1ccc2cc(/C=C/c3ccc(N(C)C)cc3)oc2c1 [Example 22, (E)-6-(2-dimethylaminoethoxy)-2-(4-dimethylaminostyryl)benzofuran hydrochloride] | 52.1 ± 3.68 |  | 
 |  |  |  |  |  |  |  |  |  |  |  | CN(C)CCOc1ccc2cc(/C=C/c3ccc(N(C)C)cc3)oc2c1 [Example 2, (E)-6-(2-dimethylaminoethoxy)-2-(4-dimethylaminostyryl)benzofuran] |  | insignificant inhibitory efficacy | 
≥ 70 | 43.4 | 535 | 472 | 62.7 | 4 | 54,114.7 ng · h/ml | 27,412 ng · h/ml | 3,828 ng/ml | 10 | 101 | 58.1 | CN(C)CCCOc1ccc2cc(/C=C/c3ccc(N(C)C)cc3)oc2c1.Cl [Example 23, (E)-6-(3-dimethylaminopropoxy)-2-(4-dimethylaminostyryl)benzofuran hydrochloride] |  |  | equal to or greater than that of the comparative compound, curcumin
